Results on one compound are retold here after ChEMBL document CHEMBL2034929, “A specific molecular beacon probe for the detection of human prostate cancer cells” (Bioorg Med Chem Lett, 2012).

The test system of data set [1] is LNCaP. In words: Drug metabolism in human LNCAP cell lysates at 10 uM after 26 hrs by fluorescence analysis relative to human RWPE1 cells. The data set is classed as ADME, cell-based, Lysate.
Data set [2] has as its system LNCaP. In words: Drug metabolism in human LNCAP cells at 10 uM after 30 mins by fluorescence microscopy. The format is ADME, cell-based. The following applies: 0.5 h.
Data set [3] is described as follows: Drug metabolism in 0.10 M tris-maleate buffer at pH 8 assessed as formation of 2-[3-[[(3'6'-Dihydroxy-3-oxospiro[isobenzofuran-1(3H), 9'-[9H]xanthen]-6-yl)carbonyl]amino]-1-propyn-1-yl]-benzenemethanol by mass spectrometry in presence of porcine liver carboxylesterase. The format is physicochemical. The following applies: pig.
Data set [4] has as its system LNCaP. In words: Drug metabolism in human LNCAP cell lysates at 10 uM after 10 days by fluorescence analysis. The format is ADME, cell-based, Lysate. The conditions noted are these: 240 h.
The subject of data set [5] is LNCaP. In words: Drug metabolism in human LNCAP cell lysates at 10 uM after 26 hrs by UV-VIS spectrophotometry relative to human RWPE1 cells. The data set is classed as ADME, cell-based, Lysate.
Data set [6] deals with LNCaP. Kind of data set: Drug metabolism in human LNCAP cell lysates assessed as formation of 2-[3-[[(3'6'-Dihydroxy-3-oxospiro[isobenzofuran-1(3H), 9'-[9H]xanthen]-6-yl)carbonyl]amino]-1-propyn-1-yl]-benzenemethanol. The format is ADME, cell-based, Lysate.
A short description of data set [7]: Drug metabolism in human RWPE1 cells at 10 uM after 30 mins by fluorescence microscopy. The data set is classed as ADME, cell-based. The following applies: rwpe-1, 0.5 h.
Data set [8] can be described thus: Drug metabolism in human RWPE1 cells at 10 uM after 26 hrs by UV-VIS spectrophotometry. The data set is classed as ADME, cell-based, RWPE-1. The following applies: read-out: Drug metabolism.
A short description of data set [9]: Drug metabolism in 0.10 M tris-maleate buffer at pH 8 assessed as formation of N-[4-[(1E)-2-[4-(dimethylamino)phenyl]diazenyl]benzoyl]-glycine by mass spectrometry in presence of porcine liver carboxylesterase. The data set is classed as physicochemical. The conditions noted are these: pig.
The nature of data set [10]: Drug metabolism in human LNCAP cells at 10 uM after 26 hrs by UV-VIS spectrophotometry. The data set is classed as ADME, cell-based. The following applies: read-out: Drug metabolism.
In data set [11] the test system is LNCaP. Kind of data set: Drug metabolism in human LNCAP cell lysates at 10 uM after 26 hrs by fluorescence analysis relative to untreated human RWPE1 cells. The data set is classed as ADME, cell-based, Lysate.
The nature of data set [12]: Drug metabolism in 0.10 M tris-maleate buffer at pH 8 assessed as increase in fluorescence at 10 uM after 5 hrs by UV-VIS spectrophotometry in presence of porcine liver carboxylesterase relative to control. The data set is classed as physicochemical. The following applies: pig, pH 8, 5 h.
Data set [13] concerns LNCaP. Kind of data set: Drug metabolism in human LNCAP cell lysates assessed as formation of N-[4-[(1E)-2-[4-(dimethylamino)phenyl]diazenyl]benzoyl]-glycine. The format is ADME, cell-based, Lysate.

As to `CN(C)c1ccc(/N=N/c2ccc(C(=O)NCC(=O)OCc3ccccc3C#CCNC(=O)c3ccc4c(c3)C3(OC4=O)c4ccc(O)cc4Oc4cc(O)ccc43)cc2)cc1`, the “fold change (FC)” value with LNCaP [1] was 3.8; in the data set on LNCaP [5], 2.9; in the data set on LNCaP [11], 30.8; in data set [12], 23. In addition, the Drug metabolism entry in the data set on LNCaP [2] is “Active”; in data set [3], “Active”; with LNCaP [4], “Active”; in the data set with LNCaP [6], “Active”; in data set [7], “Not Active”; in data set [9], “Active”. Besides, the Drug metabolism result in the data set with LNCaP [13] is “Active”. Further, the metabolised at 26 h, 10 µM is 10% in data set [8] and 29% in data set [10].
